Data on 18 compounds can be found in patent US10975068B2, “6-aminopyridin-3-yl thiazoles as modulators of RORγT” (Janssen Pharmaceutica NV, priority 2016, dated 2021).

Where two headings read alike, the source gives them in different places.

Experiment [1] addresses human RORγt ligand binding domain (RORγt LBD) (Homo sapiens (Human), UniProt P51449). Kind of experiment: RORγt ThermoFluor® assay (thermal shift binding). The gist of the method:
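His-tagged human RORγt LBD (0.065 mg/mL) with 60 μM 1,8-ANS in 100 mM Hepes pH 7.0, 10 mM NaCl, 2.5 mM GSH, 0.002% Tween-20 was heated at 1 °C/min.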

Another experiment deals with full-length human RORγt (Homo sapiens (Human), UniProt P51449). Kind of experiment: RORγt (full-length human) reporter assay, Conditions B or C. The class given is cell-based. The settings on record: for inhibition at 3 µM: at 3 μM compound concentration, read-out: RORγt (FL) Reporter Assay B or C, % inhibition; for RORγt (FL) Reporter Assay B or C, % inhibition (value marked *): marked *: footnote not given. The gist of the method: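 HEK293T cells transiently co-transfected with GAL4-DBD–full-length human RORγt (nt 142-1635, NM_001001523.1) plus GAL4-firefly and CMV-Renilla luciferase reporters; compounds added 4-6 h post-transfection for 16-20 h in 1.3% FBS, 0.1% DMSO. Firefly signal normalized to DMSO and saturating reference compound, then to Renilla; IC50 from concentration plots.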
Chain of full-length human RORγt (P51449 other isoform, or with tags, fused parts or gaps): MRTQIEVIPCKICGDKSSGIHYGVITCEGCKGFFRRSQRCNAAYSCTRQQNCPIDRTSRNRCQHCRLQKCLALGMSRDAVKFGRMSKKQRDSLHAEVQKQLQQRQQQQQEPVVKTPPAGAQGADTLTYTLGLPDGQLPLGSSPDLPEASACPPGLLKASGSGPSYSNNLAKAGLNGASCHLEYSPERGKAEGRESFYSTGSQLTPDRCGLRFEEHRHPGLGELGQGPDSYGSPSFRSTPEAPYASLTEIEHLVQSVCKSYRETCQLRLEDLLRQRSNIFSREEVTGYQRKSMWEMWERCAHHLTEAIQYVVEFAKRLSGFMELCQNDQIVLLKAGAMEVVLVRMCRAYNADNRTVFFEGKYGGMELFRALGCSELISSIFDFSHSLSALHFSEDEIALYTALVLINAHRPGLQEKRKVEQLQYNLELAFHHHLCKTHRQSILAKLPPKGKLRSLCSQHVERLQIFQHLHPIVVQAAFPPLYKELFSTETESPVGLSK

[2] abbreviates: read-out: ThermoFluor® Assay, Kd.
The mark [3] stands for this setting: read-out: RORγt (FL) Reporter Assay B or C, IC50.
[4] abbreviates: Conditions B or C, read-out: RORγt (FL) Reporter Assay B or C, IC50.

Chain of human RORγt ligand binding domain (RORγt LBD) (P51449 other isoform, or with tags, fused parts or gaps): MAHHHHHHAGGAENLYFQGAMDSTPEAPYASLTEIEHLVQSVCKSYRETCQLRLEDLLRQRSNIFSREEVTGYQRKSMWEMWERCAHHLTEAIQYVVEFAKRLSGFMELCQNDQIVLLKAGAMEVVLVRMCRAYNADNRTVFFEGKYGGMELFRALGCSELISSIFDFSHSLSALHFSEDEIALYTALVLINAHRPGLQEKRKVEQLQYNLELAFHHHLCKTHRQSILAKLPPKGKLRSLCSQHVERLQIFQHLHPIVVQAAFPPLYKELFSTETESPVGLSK

Consider `CC[C@H](CO)NC(=O)c1nc(C(=O)N2CCC[C@@H]2C)c(-c2cnc(N[C@@H](C)C(F)(F)F)cc2C(F)F)s1` [Example 408, 5-[4-(Difluoromethyl)-6-[[(1S)-2,2,2-trifluoro-1-methyl-ethyl]amino]-3-pyridyl]-N-[(1R)-1-(hydroxymethyl)propyl]-4-[(2S)-2-methylpyrrolidine-1-carbonyl]thiazole-2-carboxamide], for which the Kd in experiment [1] (setting [2]) came to 0.0038 µM. In addition, the inhibition at 3 µM at full-length human RORγt is 83%. In addition, the IC50 at full-length human RORγt (setting [3]) came out at 0.073 µM.
For `CC[C@H](Nc1cc(C(F)F)c(-c2sc(C(=O)NC3CCCC3O)nc2C(=O)N2CCC[C@@H]2C)cn1)C(F)(F)F` (stereo partly drawn) [Example 252, 5-(4-(Difluoromethyl)-6-(((S)-1,1,1-trifluorobutan-2-yl)amino)pyridin-3-yl)-N-(cis-2-hydroxycyclopentyl)-4-((S)-2-methylpyrrolidine-1-carbonyl)thiazole-2-carboxamide] the same measures were 0.0012 µM, 106% and 0.035 µM.
Turning to `C[C@H]1CCCN1C(=O)c1nc(C(=O)NC2CCS(=O)(=O)CC2)sc1-c1cnc(NC(C)(C)C)cc1C(F)(F)F` [Example 254, 5-[6-(tert-Butylamino)-4-(trifluoromethyl)-3-pyridyl]-N-(1,1-dioxothian-4-yl)-4-[(2S)-2-methylpyrrolidine-1-carbonyl]thiazole-2-carboxamide], in experiment [1] (setting [2]), the dissociation constant (Kd) turned out to be 0.00025 µM. Besides, the inhibition at 3 µM on full-length human RORγt is 107%. The IC50 on full-length human RORγt (setting [3]) amounted to 0.016 µM.
Take `CC(Nc1cc(C(F)(F)F)c(-c2sc(C(=O)NCC(C)(C)O)nc2C(=O)N2CC(F)(F)C[C@@H]2C)cn1)C1CCC1` (stereo partly drawn) [Example 161, 5-(6-((1-Cyclobutylethyl)amino)-4-(trifluoromethyl)pyridine-3-yl)-4-((S)-4,4-difluoro-2-methylpyrrolidine-1-carbonyl)-N-(2-hydroxy-2-methylpropyl)thiazole-2-carboxamide]: the Kd in experiment [1] (setting [2]) amounted to 0.00078 µM. In addition, at full-length human RORγt (Conditions B or C), the “RORγt (FL) Reporter Assay B or C, % inhibition (value marked *)” value (from here on “RORγt … % inhibition (value marked *)”) was 106* %. Further, the IC50 on full-length human RORγt (setting [4]) is 0.02 µM.
`CC[C@H](Nc1cc(C(F)F)c(-c2sc(C(=O)N[C@H]3C[C@H](O)C3)nc2C(=O)N2C3CCC2CC3)cn1)C(F)(F)F` [Example 222, 4-((1s,4s)-7-Azabicyclo[2.2.1]heptane-7-carbonyl)-5-(4-(difluoromethyl)-6-(((1S)-1-(trifluoromethyl)propyl)amino)-3-pyridyl)-N-((1r,3S)-3-hydroxycyclobutyl)thiazole-2-carboxamide]: the Kd in experiment [1] (setting [2]) came out at 0.01 µM. At full-length human RORγt (Conditions B or C), the “RORγt … % inhibition (value marked *)” value is given as 113* %. At full-length human RORγt (setting [4]), the IC50 is 0.012 µM.
With `C[C@H]1CCCN1C(=O)c1nc(C(=O)NCC(C)(C)O)sc1-c1cnc(NC2(C)CCC2)cc1C(F)F` [Example 173], the Kd in experiment [1] (setting [2]) was found to be 0.0058 µM. For the same compound, the “RORγt … % inhibition (value marked *)” value on full-length human RORγt (Conditions B or C) was 95* %. The concentration for half-maximal inhibition (IC50) at full-length human RORγt (setting [4]) was determined as 0.055 µM.
On to `CC[C@H](Nc1cc(C(F)F)c(-c2sc(C(=O)N[C@@H](C)[C@@H](C)O)nc2C(=O)N2CCC[C@@H]2C)cn1)C(F)(F)F` (relative stereo) [Example 219, 5-(4-(Difluoromethyl)-6-(((S)-1,1,1-trifluorobutan-2-yl)amino)pyridin-3-yl)-N-((2S*,3R*)-3-hydroxybutan-2-yl)-4-((S)-2-methylpyrrolidine-1-carbonyl)thiazole-2-carboxamide], for which the Kd in experiment [1] (setting [2]) was 0.0041 µM. In addition, the “RORγt … % inhibition (value marked *)” value on full-length human RORγt (Conditions B or C) was 112* %. The half-maximal inhibitory concentration (IC50) on full-length human RORγt (setting [4]) is 0.02 µM.
Turning to `C[C@H]1CCCN1C(=O)c1nc(C(=O)N[C@H]2C[C@H](O)C2)sc1-c1cnc(N[C@H](C)C(F)(F)F)cc1C(F)F` [Example 319, 5-(4-(Difluoromethyl)-6-(((R)-1,1,1-trifluoropropan-2-yl)amino)pyridin-3-yl)-N-((1r,3S)-3-hydroxycyclobutyl)-4-((S)-2-methylpyrrolidine-1-carbonyl)thiazole-2-carboxamide], the dissociation constant (Kd) in experiment [1] (setting [2]) came to 0.029 µM. Further, the inhibition at 3 µM at full-length human RORγt amounted to 91%. Also, the half-inhibitory concentration (IC50) on full-length human RORγt (setting [3]) is 0.079 µM.
Take `CC[C@@H](Nc1cc(C(F)(F)F)c(-c2sc(C(=O)NCC(C)(C)O)nc2C(=O)N2C3CCC2CC3)cn1)C1CC1` (stereo in doubt) [Example 131]: the equilibrium dissociation constant (Kd) in experiment [1] (ThermoFluor® Assay, Kd (μM)) amounted to 0.0014 µM. Moreover, the “RORγt … % inhibition (value marked *)” value on full-length human RORγt (Conditions B or C) is 107* %. At full-length human RORγt (RORγt (FL) Reporter Assay B or C, IC50 (μM), Conditions B or C), this compound displayed a 50% inhibitory concentration (IC50) of 0.03 µM.
On to `C[C@H]1CCCN1C(=O)c1nc(C(=O)NCc2nnn[nH]2)sc1-c1cnc(NC(C)(C)C)cc1C(F)(F)F` [Example 303, (S)—N-((1H-Tetrazol-5-yl)methyl)-5-(6-(tert-butylamino)-4-(trifluoromethyl)pyridin-3-yl)-4-(2-methylpyrrolidine-1-carbonyl)thiazole-2-carboxamide], for which, in experiment [1] (setting [2]), the dissociation constant Kd amounted to 0.015 µM. Further, the inhibition at 3 µM on full-length human RORγt was determined as 88%. The IC50 on full-length human RORγt (setting [3]) amounted to 0.74 µM.
On the same counts, the results for `CC[C@H](Nc1cc(C(F)F)c(-c2sc(C(=O)N3CC4CCC(C3)O4)nc2C(=O)N2CCC[C@@H]2C)cn1)C(F)(F)F` [Example 378, [5-[4-(Difluoromethyl)-6-[[(1S)-1-(trifluoromethyl)propyl]amino]-3-pyridyl]-2-(8-oxa-3-azabicyclo[3.2.1]octane-3-carbonyl)thiazol-4-yl]-[(2S)-2-methylpyrrolidin-1-yl]methanone] are 0.018 µM, 109% and 0.079 µM.
As to `C[C@H](NC(=O)c1nc(C(=O)N2CC(F)(F)C[C@@H]2C)c(-c2cnc(NC3(C)CCC3)cc2C(F)F)s1)C(C)(C)O` [Example 326, 4-((S)-4,4-Difluoro-2-methylpyrrolidine-1-carbonyl)-5-(4-(difluoromethyl)-6-((1-methylcyclobutyl)amino)pyridin-3-yl)-N—((S)-3-hydroxy-3-methylbutan-2-yl)thiazole-2-carboxamide], the Kd in experiment [1] (setting [2]) amounted to 0.00071 µM. Moreover, the inhibition at 3 µM at full-length human RORγt was 90%. Also, the IC50 at full-length human RORγt (setting [3]) is 0.097 µM.
As for `C[C@H]1CCCN1C(=O)c1nc(C(=O)NCC(C)(C)O)sc1-c1cnc(NCC2(C(F)(F)F)CCC2)cc1C(F)F` [Example 274, 5-[4-(Difluoromethyl)-6-[[1-(trifluoromethyl)cyclobutyl]methylamino]-3-pyridyl]-N-(2-hydroxy-2-methyl-propyl)-4-[(2S)-2-methylpyrrolidine-1-carbonyl]thiazole-2-carboxamide], in experiment [1] (setting [2]), the Kd was 0.00097 µM. On full-length human RORγt, the inhibition at 3 µM was 96%. The IC50 at full-length human RORγt (setting [3]) is 0.036 µM.
On the same counts, the results for `C[C@H]1CCCN1C(=O)c1nc(C(=O)N[C@H]2CC[C@H](O)C2)sc1-c1cnc(NC(C)(C)C)cc1C(F)F` [Example 414, 5-[6-(tert-Butylamino)-4-(difluoromethyl)-3-pyridyl]-N-[(1S,3S)-3-hydroxycyclopentyl]-4-[(2S)-2-methylpyrrolidine-1-carbonyl]thiazole-2-carboxamide] are 0.0017 µM, 110% and 0.013 µM.
As for `CC[C@H](Nc1cc(C(F)F)c(-c2sc(C(=O)N[C@@H]3CC[C@H]3O)nc2C(=O)N2C3CCC2CC3)cn1)C(F)(F)F` (relative stereo) [Example 405, 4-((1s,4s)-7-Azabicyclo[2.2.1]heptane-7-carbonyl)-5-(4-(difluoromethyl)-6-(((S)-1,1,1-trifluorobutan-2-yl)amino)pyridin-3-yl)-N-((1R*,2R*)-2-hydroxycyclobutyl)thiazole-2-carboxamide], the Kd in experiment [1] (setting [2]) was found to be 0.002 µM. Moreover, the inhibition at 3 µM on full-length human RORγt came out at 95%. Further, at full-length human RORγt (setting [3]), the 50% inhibitory concentration (IC50) was determined as 0.11 µM.
On to `C[C@H]1CCCN1C(=O)c1nc(C(=O)N[C@H]2C[C@H](S(C)(=O)=O)C2)sc1-c1cnc(NC2CCCC2)cc1C(F)F` [Example 72, 5-(6-(Cyclopentylamino)-4-(difluoromethyl)pyridin-3-yl)-4-((S)-2-methylpyrrolidine-1-carbonyl)-N-((1r,3r)-3-(methylsulfonyl)cyclobutyl)thiazole-2-carboxamide], for which the Kd in experiment [1] (setting [2]) is 0.035 µM. Further, the “RORγt … % inhibition (value marked *)” value at full-length human RORγt (Conditions B or C) is recorded as 104* %. Also, the half-maximal inhibitory concentration (IC50) on full-length human RORγt (setting [4]) turned out to be 0.089 µM.
On to `C[C@@H](NC(=O)c1nc(C(=O)N2C3CCC2CC3)c(-c2cnc(N[C@@H](C3CC3)C(F)(F)F)cc2C(F)F)s1)C(C)(C)O` [Example 316, 4-((1s,4s)-7-Azabicyclo[2.2.1]heptane-7-carbonyl)-5-(6-(((S)-1-cyclopropyl-2,2,2-trifluoroethyl)amino)-4-(difluoromethyl)pyridin-3-yl)-N—((R)-3-hydroxy-3-methylbutan-2-yl)thiazole-2-carboxamide], for which, in experiment [1] (setting [2]), the Kd stood at 0.0029 µM. At full-length human RORγt (RORγt (FL) Reporter Assay B or C, IC50), this compound displayed an IC50 of 0.032 µM. In addition, on full-length human RORγt, the inhibition at 3 µM came out at 108%.
Consider `C[C@H](NC(=O)c1nc(C(=O)N2CC(F)(F)C[C@@H]2C)c(-c2cnc(NC(C)(C)C)cc2C(F)F)s1)C(C)(C)O` [Example 257, 5-[6-(tert-Butylamino)-4-(difluoromethyl)-3-pyridyl]-4-[(2S)-4,4-difluoro-2-methyl-pyrrolidine-1-carbonyl]-N-[(1S)-2-hydroxy-1,2-dimethyl-propyl]thiazole-2-carboxamide], for which the dissociation constant (Kd) in experiment [1] (setting [2]) was 0.0018 µM. Moreover, the inhibition at 3 µM on full-length human RORγt worked out at 98%. The half-maximal inhibitory concentration (IC50) at full-length human RORγt (setting [3]) stood at 0.031 µM.
